# From patent publication US20040259819A1, “Novel heterocyclic fluoroglycoside derivatives, medicaments containing these compounds, and the use thereof” (Aventis Pharma Deutschland GmbH, priority 2002, published 2004)
# Molecular target: T1, SGLT (Oryctolagus cuniculus, UniProt P11170)
# T1 construct: To prepare brush border membranes from rabbit small intestine, rabbits were sacrificed; from tissue; host or cells: rabbit small intestine mucosa, brush border membrane vesicles (Mg2+ precipitation)
# T1 sequence (P11170 1-662): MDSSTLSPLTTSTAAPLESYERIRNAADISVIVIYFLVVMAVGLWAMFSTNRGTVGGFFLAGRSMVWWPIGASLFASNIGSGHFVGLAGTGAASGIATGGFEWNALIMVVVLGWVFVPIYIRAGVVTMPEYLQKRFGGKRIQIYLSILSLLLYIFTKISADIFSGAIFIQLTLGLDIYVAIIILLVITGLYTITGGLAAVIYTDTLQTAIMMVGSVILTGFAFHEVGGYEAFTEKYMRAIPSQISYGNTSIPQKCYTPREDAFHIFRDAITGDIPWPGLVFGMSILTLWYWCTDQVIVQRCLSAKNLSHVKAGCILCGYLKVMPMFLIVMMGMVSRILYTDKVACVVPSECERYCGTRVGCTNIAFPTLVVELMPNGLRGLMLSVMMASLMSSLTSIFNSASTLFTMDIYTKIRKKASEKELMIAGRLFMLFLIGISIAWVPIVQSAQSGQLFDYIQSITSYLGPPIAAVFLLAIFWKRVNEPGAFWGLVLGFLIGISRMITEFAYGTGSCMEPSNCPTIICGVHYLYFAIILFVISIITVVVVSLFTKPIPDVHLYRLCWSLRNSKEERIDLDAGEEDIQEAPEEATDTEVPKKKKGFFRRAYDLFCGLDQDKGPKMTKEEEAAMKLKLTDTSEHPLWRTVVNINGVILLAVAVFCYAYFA
# Assay: Glucose uptake transport assay on rabbit small intestine brush border membrane vesicles
# Assay type: biochemical
# Conditions: uptake of 10 μM [14C]D glucose into rabbit small intestine brush border membrane vesicles, 15 seconds, 30° C., membrane filtration method
# Procedure: Preparation of brush border membrane vesicles from the small intestine of rabbits, rats and pigs
# Preparation of brush border membrane vesicles from the intestinal cells of the small intestine was carried out by the so-called Mg^2+ precipitation method. The mucosa of the small intestine was scraped off and suspended in 60 ml of ice-cold Tris/HCl buffer (pH 7.1)/300 mM mannitol, 5 mM EGTA. Dilution to 300 ml with ice-cold distilled water was followed by homogenization with an Ultraturrax (18 shaft, IKA Werk Staufen, FRG) at 75% of the max. power for 2×1 minute, while cooling in ice. After addition of 3 ml of 1M MgCl2 solution (final concentration 10 mM), the mixture is left to stand at 0° C. for exactly 15 minutes. Addition of Mg^2+ causes the cell membranes to aggregate and precipitate with the exception of the brush border membranes. After centrifugation at 3 000×g (5 000 rpm, SS-34 rotor) for 15 minutes, the precipitate is discarded and the supernatant, which contains the brush border membranes, is centrifuged at 26 700×g (15 000 rpm, SS-34 rotor) for 30 minutes. The supernatant is discarded, and the precipitate is rehomogenized in 60 ml of 12 mM Tris/HCl buffer (pH 7.1)/60 mM mannitol, 5 mM EGTA using a Potter Elvejhem homogenizer (Braun, Melsungen, 900 rpm, 10 strokes). Addition of 0.1 ml of 1M MgCl2 solution and incubation at 0° C. for 15 minutes is followed by centrifugation again at 3 000×g for 15 minutes. The supernatant is then centrifuged again at 46 000×g (20 000 rpm, SS-34 rotor) for 30 minutes. The precipitate is taken up in 30 ml of 20 mM Tris/Hepes buffer (pH 7.4)/280 mM mannitol and homogeneously resuspended by 20 strokes in a Potter Elvejhem homogenizer at 1 000 rpm. After centrifugation at 48 000×g (20 000 rpm, SS-34 rotor) for 30 minutes, the precipitate was taken up in 0.5 to 2 ml of Tris/Hepes buffer (pH 7.4)/280 mM mannitol (final concentration 20 mg/ml) and resuspended using a tuberculin syringe with a 27 gauge needle. […]
# The uptake of [^14C]-labeled glucose into brush border membrane vesicles was measured by the membrane filtration method. […]
row,SMILES,IC50
1,"COc1ccc(Cc2sccc2OC2OC(CO)C(F)C(O)C2O)cc1 (single isomer, unassigned) [Example 1]",4000 nM
2,"COc1ccc(Cc2sccc2OC2OC(CO)C(F)C(O)C2O)cc1 (single isomer, unassigned) [Example 3]",300 nM
3,COc1ccc(Cc2sc3ccccc3c2OC2OC(CO)C(F)C(O)C2O)cc1 (stereo not drawn) [Example 2],400 nM
